Patent US10231967B2, “Compounds and their use as BACE inhibitors” (ASTRAZENECA AB, priority 2010, dated 2019)

What follows are molecules tested on sAPPβ release in SH-SY5Y cells (assay: sAPPβ release assay). Conditions: Homo sapiens, SH-SY5Y, 17 h, compounds incubated 17 h, MSD detection.
Format: cell-based
Method: Thaw cells and seed at a conc. of around 10000 cells/well in DMEM/F-12 with Glutamax, 10% FCS and 1% non-essential amino acids to a 384-well tissue culture treated plate, 100 μL cell susp/well. […] The cell medium was removed, followed by addition of 30 μL compound diluted in DMEM/F-12 with Glutamax, 10% FCS, 1% non-essential amino acids and 1% PeSt to a final conc. of 1% DMSO. The compounds were incubated with the cells for 17 h (overnight) at 37° C., 5% CO2. Meso Scale Discovery (MSD) plates were used for the detection of sAPPβ release. MSD sAPPβ plates were blocked in 1% BSA in Tris wash buffer (40 μL/well) for 1 h on shake at r.t. and washed 1 time in Tris wash buffer (40 μL/well). 20 μL of medium was transferred to the pre-blocked and washed MSD sAPPβ microplates, and the cell plates were further used in an ATP assay to measure cytotoxicity. The MSD plates were incubated with shaking at r.t. for 2 h and the media discarded. 10 μL detection antibody was added (1 nM) per well followed by incubation with shaking at r.t. for 2 h and then discarded. 40 μL Read Buffer was added per well and the plates were read in a SECTOR Imager.

Row | SMILES | IC50 [nM]
1 | CO[C@H]1CC[C@]2(CC1)Cc1ccc(C#N)cc1C21N=C(C)C(N)=N1 (some centres unmarked) [Example 79, (1r,4r)-4″-Amino-4-methoxy-5″-methyl-3′H-dispiro[cyclohexane-1,2′-indene-1′,2″-imidazole]-6′-carbonitrile] | 171
2 | CCO[C@H]1CC[C@]2(CC1)Cc1ccc(Br)cc1C21N=C(C)C(N)=N1 (some centres unmarked) [Example 130, (1r,4r)-6′-Bromo-4-ethoxy-5″-methyl-3′H-dispiro[cyclohexane-1,2′-indene-1′,2″-imidazol]-4″-amine] | 148
3 | CO[C@H]1CC[C@]2(CC1)Cc1ccc(C#CC3CCC3)cc1C21N=C(C)C(N)=N1 (some centres unmarked) [Example 112, (1r,4r)-6′-(Cyclobutylethynyl)-4-methoxy-5″-methyl-3′H-dispiro[cyclohexane-1,2′-indene-1′,2″-imidazol]-4″-amine] | 2
4 | CC1=NC2(N=C1N)c1cc(Br)ccc1CC21CCC(F)(F)CC1 (centres unmarked) [Example 27, 6′-Bromo-4,4-difluoro-5″-methyl-3′H-dispiro[cyclohexane-1,2′-indene-1′,2″-imidazol]-4″-amine] | 399
5 | CC1=NC2(CC(C3CCCOC3)Oc3ccc(Br)cc32)N=C1N (single isomer, unassigned) [Example 47 Isomer 2, 6-Bromo-5′-methyl-2-(tetrahydro-2H-pyran-3-yl)spiro[chromane-4,2′-imidazole]-4′-amine] | 657
6 | CC1=N[C@]2(C[C@H]([C@H]3CCCOC3)Oc3ccc(-c4cccc(Cl)c4)cc32)N=C1N [Example 48 Isomer 4, (2R,4R)-6-(3-chlorophenyl)-5′-methyl-2-[(3 S)-tetrahydro-2H-pyran-3-yl]-1′,2,3,3′-tetrahydrospiro[chromene-4,2′-imidazol]-4′-amine] | 689
7 | CO[C@H]1CC[C@]2(CC1)Cc1ccc(NC(=O)c3ccc(Cl)cn3)cc1C21N=C(C)C(N)=N1 (some centres unmarked) [Example 20q, N-[(1r,4r)-4″-Amino-4-methoxy-5″-methyl-3′H-dispiro[cyclohexane-1,2′-indene-1′,2″-imidazol]-6′-yl]-5-chloropyridine-2-carboxamide] | 3.8

Next, values leading:

Row | IC50 [nM] | SMILES
8 | 0.99 | CO[C@H]1CC[C@]2(CC1)Cc1ccc(-c3cncc(C(F)(F)F)c3)cc1[C@@]21N=C(C)C(N)=N1 [Example 84, (1r,1′R,4R)-4-Methoxy-5″-methyl-6′-[5-(trifluoromethyl)pyridin-3-yl]-3′H-dispiro[cyclohexane-1,2′-indene-1′,2″-imidazol]-4″-amine]
9 | 8.7 | CO[C@H]1CC[C@]2(CC1)Cc1ccc(-c3cnc(C)c(Cl)c3)cc1C21N=C(C)C(N)=N1 (some centres unmarked) [Example 60, (1r,4r)-6′-(5-Chloro-6-methylpyridin-3-yl)-4-methoxy-5″-methyl-3′H-dispiro[cyclohexane-1,2′-indene-1′,2″-imidazol]-4″-amine]
10 | 12 | CO[C@H]1CC[C@]2(CC1)Cc1ccc(-c3cnc4[nH]cc(C)c4c3)cc1C21N=C(C)C(N)=N1 (some centres unmarked) [Example 116, (1r,4r)-4-Methoxy-5″-methyl-6′-(3-methyl-1H-pyrrolo[2,3-b]pyridin-5-yl)-3′H-dispiro[cyclohexane-1,2′-indene-1′,2″-imidazol]-4″-amine]
11 | 2.1 | CO[C@H]1CC[C@]2(CC1)Cc1ccc(-c3cc(C)cc(C#N)c3)cc1C21N=C(C)C(N)=N1 (some centres unmarked) [Example 74, 3-[(1r,4r)-4″-Amino-4-methoxy-5″-methyl-3′H-dispiro[cyclohexane-1,2′-indene-1′,2″-imidazol]-6′-yl]-5-methylbenzonitrile]
12 | 14 | CO[C@H]1CC[C@]2(CC1)Cc1ccc(-c3ccc(F)cc3F)cc1[C@@]21N=C(C)C(N)=N1 [Example 103]
13 | 18 | CC#Cc1cncc(-c2ccc3c(c2)C2(N=C(C)C(N)=N2)C2(CCC(F)(F)CC2)C3)c1 (centres unmarked) [Example 28h, 4,4-Difluoro-5″-methyl-6′-[5-(prop-1-yn-1-yl)pyridin-3-yl]-3′H-dispiro[cyclohexane-1,2′-indene-1′,2″-imidazol]-4″-amine]
14 | 24 | CCO[C@H]1CC[C@]2(CC1)Cc1ccc(-c3cncc(C(F)(F)F)c3)cc1C21N=C(C)C(N)=N1 (some centres unmarked) [Example 131]
15 | 3.4 | CCC1=NC2(N=C1N)c1cc(-c3cncc(Cl)c3)ccc1C[C@]21CC[C@@H](OC)CC1 (some centres unmarked) [Example 65, (1r,4r)-6′-(5-Chloropyridin-3-yl)-5-ethyl-4-methoxy-3′H-dispiro[cyclohexane-1,2′-indene-1′,2″-imidazol]-4″-amine]
16 | 0.81 | CC#Cc1cncc(-c2ccc3c(c2)C2(N=C(N)C(CC)=N2)[C@]2(CC[C@H](OC)CC2)C3)c1 (some centres unmarked) [Example 67, (1r,4r)-5″-Ethyl-4-methoxy-6′-[5-(prop-1-yn-1-yl)pyridin-3-yl]-3′H-dispiro[cyclohexane-1,2′-indene-1′,2″-imidazol]-4″-amine]
17 | 3.1 | CO[C@H]1CC[C@]2(CC1)Cc1ccc(-c3cnc(C)c(Cl)c3)cc1[C@@]21N=C(C)C(N)=N1 [Example 61, (1r,1′R,4R)-6′-(5-Chloro-6-methylpyridin-3-yl)-4-methoxy-5″-methyl-3′H-dispiro[cyclohexane-1,2′-indene-1′,2″-imidazol]-4″-amine]

Same assay, conditions: Homo sapiens, compounds incubated 17 h, MSD detection

Row | SMILES | IC50 [nM]
18 | COCc1cc(C#N)cc(-c2ccc3c(c2)C2(N=C(C)C(N)=N2)[C@]2(CC[C@H](OC)CC2)C3)c1 (some centres unmarked) [Example 96, 3-[(1r,4r)-4″-Amino-4-methoxy-5″-methyl-3′H-dispiro[cyclohexane-1,2′-indene-1′,2″-imidazol]-6′-yl]-5-(methoxymethyl)benzonitrile] | 3.5
19 | CC#CCOc1ccc(C(=O)Nc2ccc3c(c2)C2(CCO3)N=C(C)C(N)=N2)nc1 (centres unmarked) [Example 13d, N-(4′-amino-5′-methylspiro[chroman-4,2′-imidazole]-6-yl)-5-(but-2-ynyloxy)picolinamide] | 239
20 | CC1=NC2(CCOc3ccc(-c4cncc(Cl)c4)cc32)N=C1N (centres unmarked) [Example 2, 6-(5-Chloropyridin-3-yl)-5′-methylspiro[chroman-4,2′-imidazol]-4′-amine] | 941
21 | COC1CCC2(CC1)Oc1ccc(-c3cncc(Cl)c3)cc1C21N=C(C)C(N)=N1 (centres unmarked) [Example 30d, 5′-(5-Chloropyridin-3-yl)-4-methoxy-5′-methyldispiro[cyclohexane-1,2′-[1]benzofuran-3′,2″-imidazol]-4″-amine] | 97
22 | CC1=NC2(CCOc3ccc(-c4cc(Cl)cc(Cl)c4)cc32)N=C1N (centres unmarked) [Example 1, 6-(3,5-Dichlorophenyl)-5′-methylspiro[chroman-4,2′-imidazol]-4′-amine] | 587
23 | CC#CCOc1cnc(C(=O)Nc2ccc3c(c2)C2(CCO3)N=C(C)C(N)=N2)cn1 (centres unmarked) [Example 13e, N-(4′-Amino-5′-methylspiro[chroman-4,2′-imidazole]-6-yl)-5-(but-2-ynyloxy)pyrazine-2-carboxamide] | 106
24 | COc1cc(C#N)cc(-c2ccc3c(c2)[C@@]2(N=C(C)C(N)=N2)[C@]2(CC[C@H](OC)CC2)C3)c1 (single isomer, unassigned) [Example 92 Isomer 1] | 0.27

Results, then the molecule that gave them:

Row | IC50 [nM] | SMILES
25 | 9.7 | CC1=N[C@]2(N=C1N)c1cc(-c3cc(F)cc(C#N)c3)ccc1C[C@]21CC[C@@H](OC(F)F)CC1 (racemic) [Example 105, 3-[(1r,4r)-4″-Amino-4-(difluoromethoxy)-5″-methyl-3′H-dispiro[cyclohexane-1,2′-indene-1′,2″-imidazol]-6′-yl]-5-fluorobenzonitrile]
26 | 7.9 | CC1=NC2(N=C1N)c1cc(-c3cncc(C(F)(F)F)c3)ccc1C[C@]21CC[C@@H](OC(F)F)CC1 (some centres unmarked) [Example 107]
27 | 1.2 | CC#Cc1cc(-c2ccc3c(c2)C2(N=C(C)C(N)=N2)[C@]2(CC[C@H](OC)CC2)C3)ccn1 (some centres unmarked) [Example 20y, (1r,4r)-4-Methoxy-5″-methyl-6′-[2-(prop-1-yn-1-yl)pyridin-4-yl]-3′H-dispiro[cyclohexane-1,2′-indene-1′,2″-imidazol]-4″-amine]
28 | 14 | CO[C@H]1CC[C@]2(CC1)Cc1ccc(-c3ccccc3)cc1[C@@]21N=C(C)C(N)=N1 [Example 90, (1r,1′R,4R)-4-Methoxy-5″-methyl-6′-phenyl-3′H-dispiro[cyclohexane-1,2′-indene-1′,2″-imidazol]-4″-amine]
29 | 10 | CCC1=NC2(N=C1N)c1cc(-c3cncc(C#N)c3)ccc1C[C@]21CC[C@@H](OC)CC1 (some centres unmarked) [Example 69, 5-[(1r,4r)-4″-Amino-5″-ethyl-4-methoxy-3′H-dispiro[cyclohexane-1,2′-indene-1′,2″-imidazol]-6′-yl]pyridine-3-carbonitrile]
30 | 0.59 | CO[C@H]1CC[C@]2(CC1)Cc1ccc(-c3cc(Cl)c(F)c(C#N)c3)cc1[C@@]21N=C(C)C(N)=N1 [Example 100, 5-[(1r,1′R,4R)-4″-amino-4-methoxy-5″-methyl-3′H-dispiro[cyclohexane-1,2′-indene-1′,2″-imidazol]-6′-yl]-3-chloro-2-fluorobenzonitrile]
31 | 0.82 | COc1ccc(F)c(-c2ccc3c(c2)[C@@]2(N=C(C)C(N)=N2)[C@]2(CC[C@H](OC)CC2)C3)c1 [Example 98, (1r,1′R,4R)-6′-(2-Fluoro-5-methoxyphenyl)-4-methoxy-5″-methyl-3′H-dispiro[cyclohexane-1,2′-indene-1′,2″-imidazol]-4′″-amine]
32 | 6950 | CC1=NC2(N=C1N)c1cc(Br)ccc1CC21CCC(C(F)(F)F)CC1 (centres unmarked) [Example 124, 6′-Bromo-5″-methyl-4-(trifluoromethyl)-3′H-dispiro[cyclohexane-1,2′-indene-1′,2″-imidazol]-4″-amine]
